Assays:
FLT3-ITD-BaF3 = assay: Proliferation of FLT3-ITD-BaF3 cells, CCK8 cell viability assay; assay type: cell-based; settings: Mus musculus, 72 hours, stably expressing FLT3/ITD
Excerpt: (§1) In this example the following cells were used: […] (purchased from ATCC), mouse P210-BaF3 (stably expressing BCR-ABL mutant activated kinase), mouse P210/T315I-BaF3 (stably expressing BCR-ABL/T315I mutant activated kinase), mouse FLT3-ITD-BaF3 (stably expressing FLT3/ITD mutant activated kinase), mouse TEL-FLT3-BaF3 (stably expressing FLT3 kinase), mouse TEL-cKIT-BaF3 (stably expressing cKIT kinase), mouse BaF3-tel/T670I-cKit (stably expressing cKIT/T670I mutant activated kinase), mouse Tel-VEGFR2-BaF3 (stably expressing VEGFR2 kinase), mouse Tel-PDGFRα-BaF3 (stably expressing PDGFRα kinase), mouse Tel-PDGFRβ-BaF3 (stably expressing PDGFRβ kinase), mouse Tel-RET-BaF3 (stably expressing RET kinase). The above cell lines were all constructed by our laboratory according to the following method: the kinase region sequences of human P210, P210/T315I, FLT3/ITD, FLT3, cKIT, cKIT/T670I, VEGFR2, PDGFRα, PDGFRβ, RET were respectively amplified by PCR, and inserted into MSCV-Puro vectors having N-terminal TEL or TPR fragments (Clontech). The vectors were stably transfected into mouse BaF3 cells by means of retrovirus, and the growth factor IL-3 were removed, eventually obtaining cell lines that depend on transferred protein P210, P210/T315I, FLT3/ITD, FLT3, cKIT, cKIT/T670I, VEGFR2, PDGFRα, PDGFRβ, or RET.
(§2) GI50 (unit: μM) was calculated by quantifying the number of living cells based on quantitative measurement of reductive dehydrogenase in living cells with CCK8 cell viability assay kit (Bestbio, China).

Tel-cKit/T670I-BaF3 = assay: Proliferation of Tel-cKit/T670I-BaF3 cells, CCK8 cell viability assay; assay type: cell-based; settings: Mus musculus, 72 hours, stably expressing cKIT/T670I
Excerpt: as §1, §2

BaF3 = assay: Proliferation of BaF3 cells, CCK8 cell viability assay; assay type: cell-based; settings: Mus musculus, 72 hours
Excerpt: as §1, §2

TEL-PDGFRα-BaF3 = assay: Proliferation of TEL-PDGFRα-BaF3 cells, CCK8 cell viability assay; assay type: cell-based; settings: Mus musculus, 72 hours, stably expressing PDGFRα kinase
Excerpt: as §1, §2

Tel-FLT3-BaF3 = assay: Proliferation of Tel-FLT3-BaF3 cells, CCK8 cell viability assay; assay type: cell-based; settings: Mus musculus, 72 hours, stably expressing FLT3 kinase
Excerpt: as §1, §2

P210/T315I-BaF3 = assay: Proliferation of P210/T315I-BaF3 cells, CCK8 cell viability assay; assay type: cell-based; settings: Mus musculus, 72 hours, stably expressing BCR-ABL/T315I
Excerpt: as §1, §2

Tel-cKit-BaF3 = assay: Proliferation of Tel-cKit-BaF3 cells, CCK8 cell viability assay; assay type: cell-based, mouse; settings: Mus musculus; 72 hours, CCK8; stably expressing cKIT kinase
Excerpt: as §1, §2

TEL-PDGFRβ-BaF3 = assay: Proliferation of TEL-PDGFRβ-BaF3 cells, CCK8 cell viability assay; assay type: cell-based; settings: Mus musculus, 72 hours, stably expressing PDGFRβ kinase
Excerpt: as §1, §2

P210-BaF3 = assay: Proliferation of P210-BaF3 cells, CCK8 cell viability assay; assay type: cell-based; settings: Mus musculus, 72 hours, stably expressing BCR-ABL mutant activated kinase
Excerpt: as §1, §2

TEL-VEGFR2-BaF3 = assay: Proliferation of TEL-VEGFR2-BaF3 cells, CCK8 cell viability assay; assay type: cell-based; settings: Mus musculus, 72 hours, stably expressing VEGFR2 kinase
Excerpt: as §1, §2

Compound | GI50 (FLT3-ITD-BaF3) [nM] | GI50 (Tel-cKit/T670I-BaF3) [nM] | GI50 (BaF3) [nM] | GI50 (TEL-PDGFRα-BaF3) [nM] | GI50 (Tel-FLT3-BaF3) [nM] | GI50 (P210/T315I-BaF3) [nM] | GI50 (Tel-cKit-BaF3) [nM] | GI50 (TEL-PDGFRβ-BaF3) [nM] | GI50 (P210-BaF3) [nM] | GI50 (TEL-VEGFR2-BaF3) [nM]
CC(=O)Nc1cc(Oc2ccc(NC(=O)Cc3ccc4ccccc4c3)cc2)ncn1 [Example 162, N-[4-(6-acetylamino-pyrimidin-4-yloxy)-phenyl]-2-naphth-2-yl-acetamide] | 19 | 915 | > 10000 | 4 | 113 | > 10000 | 313 | 6 | > 10000 | –
CC(=O)Nc1cc(Oc2ccc(CC(=O)N(C)c3ccc(Br)cc3)cc2)ncn1 [Example 39, 2-[4-(6-acetylamino-pyrimidin-4-yloxy)-phenyl]-N-(4-bromo-phenyl)-N-methyl-acetamide] | 180 | > 10000 | > 10000 | 57 | 347 | – | 7880 | 134 | > 10000 | 4260
CC(=O)Nc1cc(Oc2ccc(NC(=O)Cc3ccc(F)c(F)c3)cc2)ncn1 [Example 168, N-[4-(6-acetylamino-pyrimidin-4-yloxy)-phenyl]-2-(3,4-difluoro-phenyl)-acetamide] | 42 | 4230 | > 10000 | 6 | 99 | > 10000 | 2690 | 33 | > 10000 | –
CCCC(=O)Nc1cc(Oc2ccc(NC(=O)Cc3ccccc3C(F)(F)F)cc2)ncn1 [Example 167, N-(6-{4-[2-(2-trifluoromethyl-phenyl)-acetylamino]-phenoxy}-pyrimidin-4-yl)-butyramide] | 126 | 7940 | > 10000 | 41 | 513 | > 10000 | 9840 | 112 | > 10000 | –
CC(=O)Nc1cc(Nc2ccc(NC(=O)Cc3cccc(C(F)(F)F)c3)cc2)ncn1 [Example 165, N-[4-(6-acetylamino-pyrimidin-4-ylamino)-phenyl]-2-(3-trifluoromethyl-phenyl)-acetamide] | 21 | 4610 | > 10000 | 1 | 52 | > 10000 | 462 | 12 | > 10000 | –
Cc1ccc(NC(=O)Nc2ccc(Oc3cc(N4CCN[C@H](C)C4)ncn3)cc2)cc1C(F)(F)F [Example 106, (R)-1-(4-methyl-3-(trifluoromethyl)phenyl)-3-(4-((6-(3-methylpiperazin-1-yl)pyrimidin-4-yl)oxy)phenyl)urea] | 300 | 990 | 8920 | 21 | 460 | – | 1730 | 136 | – | 350
CC(=O)Nc1cc(Oc2ccc(CC(=O)Nc3cccc(Cl)c3C(F)(F)F)cc2)ncn1 [Example 35, 2-[4-(6-acetylamino-pyrimidin-4-yloxy)-phenyl]-N-(3-chloro-2-trifluoromethyl-phenyl)-acetamide] | 67 | 6600 | > 10000 | 203 | 925 | – | > 10000 | 406 | > 10000 | –
CC(=O)Nc1cc(Oc2ccc(CC(=O)Nc3ccc(C(F)(F)F)cc3)cc2)ncn1 [Example 36, 2-[4-(6-acetylamino-pyrimidin-4-yloxy)-phenyl]-N-(4-trifluoromethyl-phenyl)-acetamide] | 4 | 36 | > 10000 | < 1 | 17 | – | 589 | 2 | – | –
CC(=O)Nc1cc(Oc2ccc(CC(=O)Nc3cccc(C(F)(F)F)c3)cc2)ncn1 [Example 33, 2-[4-(6-acetylamino-pyrimidin-4-yloxy)-phenyl]-N-(3-trifluoromethyl-phenyl)-acetamide] | 10 | 81 | > 10000 | 1 | 4 | – | 301 | 4 | – | 13
CC(=O)Nc1cc(Oc2ccc(NC(=O)Cc3cccc4ccccc34)cc2)ncn1 [Example 163, N-[4-(6-acetylamino-pyrimidin-4-yloxy)-phenyl]-2-naphth-1-yl-acetamide] | 11 | 3270 | > 10000 | 5 | 25 | 9070 | 924 | 14 | > 10000 | –
CC(=O)Nc1cc(Oc2ccc(NC(=O)Cc3ccccc3C)cc2)ncn1 [Example 161, N-[4-(6-acetylamino-pyrimidin-4-yloxy)-phenyl]-2-(2-methyl-phenyl)-acetamide] | 74 | > 10000 | > 10000 | 24 | 228 | > 10000 | 7010 | 116 | > 10000 | –

More lines, in order of falling GI50 (FLT3-ITD-BaF3), values ahead:

GI50 (FLT3-ITD-BaF3) [nM] | GI50 (Tel-cKit/T670I-BaF3) [nM] | GI50 (BaF3) [nM] | GI50 (TEL-PDGFRα-BaF3) [nM] | GI50 (Tel-FLT3-BaF3) [nM] | GI50 (P210/T315I-BaF3) [nM] | GI50 (Tel-cKit-BaF3) [nM] | GI50 (TEL-PDGFRβ-BaF3) [nM] | GI50 (P210-BaF3) [nM] | GI50 (TEL-VEGFR2-BaF3) [nM] | Compound
1220 | > 10000 | > 10000 | 137 | 3160 | > 10000 | > 10000 | 925 | > 10000 | – | CC(=O)Nc1cc(Oc2ccc(NC(=O)C(C)c3ccc(C)cc3)cc2)ncn1 (centres unmarked) [Example 170, N-[4-(6-acetylamino-pyrimidin-4-yloxy)-phenyl]-2-(4-methyl-phenyl)-propanamide]
444 | > 10000 | > 10000 | 84 | 1410 | > 10000 | > 10000 | 938 | > 10000 | – | CC(=O)Nc1cc(Nc2ccc(NC(=O)Cc3ccccc3C(F)(F)F)cc2)ncn1 [Example 164, N-[4-(6-acetylamino-pyrimidin-4-ylamino)-phenyl]-2-(2-trifluoromethyl-phenyl)-acetamide]
213 | 8310 | > 10000 | 35 | 632 | – | > 10000 | 466 | > 10000 | 2850 | CC(=O)Nc1cc(Oc2ccc(CC(=O)Nc3ccc(C)cc3C(F)(F)F)cc2)ncn1 [Example 38, 2-[4-(6-acetylamino-pyrimidin-4-yloxy)-phenyl]-N-(4-methyl-2-trifluoromethyl-phenyl)-acetamide]
162 | 4030 | > 10000 | 5 | 2270 | – | > 10000 | 4 | > 10000 | – | CC(=O)Nc1cc(Oc2ccc(CC(=O)Nc3ccccc3)cc2)ncn1 [Example 37, 2-[4-(6-acetylamino-pyrimidin-4-yloxy)-phenyl]-N-phenyl-acetamide]
158 | > 10000 | > 10000 | 102 | 744 | – | 6930 | 156 | – | 2830 | CC(=O)Nc1cc(Oc2ccc(NC(=O)Cc3cc(Cl)ccc3C(F)(F)F)cc2)ncn1 [Example 2, N-[4-(6-acetylamino-pyrimidin-4-yloxy)-phenyl]-2-(5-chloro-2-trifluoromethyl-phenyl)-acetamide]
58 | 8850 | 7210 | 26 | 169 | 8490 | 354 | 115 | – | 398 | Cc1ccc(NC(=O)Nc2ccc(Oc3cc(N(C)CCO)ncn3)cc2)cc1C(F)(F)F [Example 87, 1-(4-{6-[(2-hydroxy-ethyl)-methyl-amino]-pyrimidin-4-yloxy}-phenyl)-3-(4-methyl-3-trifluoromethyl-phenyl)-urea]
24 | > 10000 | > 10000 | 5 | 105 | > 10000 | 1700 | 35 | > 10000 | – | CC(=O)Nc1cc(Oc2ccc(NC(=O)Cc3cccc(Cl)c3)cc2)ncn1 [Example 169, N-[4-(6-acetylamino-pyrimidin-4-yloxy)-phenyl]-2-(3-chloro-phenyl)-acetamide]

From patent US11602534B2, “Pyrimidine derivative kinase inhibitors” (HEFEI INSTITUTES OF PHYSICAL SCIENCE, CHINESE ACADEMY OF …, priority 2017, dated 2023)
